How the values were obtained:
Bcl-xLΔC20 = biological target: T1, Bcl-xLΔC20 (Homo sapiens, UniProt Q07817); assay: Calcein leakage from large unilamellar vesicles (pore formation); format: biochemical; conditions: 12 μM
T1 construct: poly-His (N); made in house
Description: The Bcl-xL protein has reversible pore-forming activity. Recombinant human Bcl-xL lacking the C-terminal 20-residue membrane anchor sequence, Bcl-xLΔC20, forms pores in large unilamellar vesicles. A reporter, calcein, can leak out of the vesicles through these pores.
Large unilamellar vesicles composed of 60% dioleoylphosphatidylcholine and 40% oleoylphosphatidylglycerol were prepared by the extrusion method of Mayer et al. (Biochim. Biophys. Acta 858:161-168 (1986)). Briefly, a dry film of lipid was resuspended in an aqueous solution containing 40 mM calcein (Molecular Probes, Eugene, Oreg.), 25 mM KCl and 10 mM HEPES (pH 7.0). […] The size of the vesicle suspension was measured by a Coulter N4 Plus-Sizer to confirm that the mean diameter of the vesicle sample was close to the expected size (100 nm). The osmolalities of all solutions were measured in a cryoscopic osmometer (Wescor Inc., Logan, Utah) and adjusted to 0.21 Osmol/kg by the addition of sodium chloride, as necessary. Lipid concentration was measured as described previously (Stewart, Anal. Biochem. 104:10-14 (1989)).
Calcein leakage was determined by adding 2-4 μg of purified Bcl-xLΔC20 (5 μg/ml, 161 nM) to a solution of 100 mM NaCl, 10 mM HEPES (pH 5.0) containing the large unilamellar vesicles (50 μM final lipid concentration) described above. […]

control mitochondria = assay: Rhodamine 123 retention assay, isolated mitochondria; format: biochemical, murine; conditions: five minutes after addition
Description: (§1) Rh-123 is a cationic lipid-soluble fluorescent dye that accumulates in mitochondria in proportion to the mitochondrial membrane potential. Mitochondria were isolated from TABX2S cells (over-expressing Bcl-xL) and from control cells, prepared as described in Example 2. The isolated mitochondria were loaded with Rh-123 by incubation with 10 μM Rh-123 for 30 minutes, washing and resuspention in buffer. […] Less than 40% of Rh-123 was retained in antimycin A-treated TABX2S mitochondria, compared with greater than 80% retained in control mitochondria.

[1] = system: mitochondria from TABX2S cells; assay: as above; format: biochemical, murine; conditions: five minutes after addition
Description: as §1

TAMH cells = assay: Microsequential injection-lab on valve glucose consumption and lactate production; format: cell-based, murine; conditions: 10-100 nM
Description: Detailed methods have been previously published (Schulz et al., Analyst 127:1583-1588 (2002)). Cytopore™ beads (Amersham Pharmacia Biotech, Upsala, Sweden) were hydrated in Hanks balanced salt solution (Gibco-BRL, Grand Island, N.Y.) and autoclaved according to manufacturers instructions. Beads were incubated in serum-containing media overnight. TAMH cells were transferred to the bead slurry at an approximate ratio of 50 cells per bead and grown in spinner culture flasks with gentle stirring. Beads were collected for metabolic studies at cell densities of approximately 100-500 cells/bead. For experiments, cell medium was replaced with HBSS. […]
Glucose and lactate concentrations were assayed as substrates in first-order NAD-linked enzymatic reactions, with NADH generation monitored by absorbance at 340 nm. […]
An assay cycle is initiated by packing a column of cells attached to beads in the microbioreactor, which is upstream of the LOV flow cell. […] After the stop flow period, 3 μL of the interstitial fluid from the cell column is injected through to the LOV flow cell previously loaded with glucose or lactate reagent and 340 nm absorbance recorded for 30 s after mixing. Calibration standards were used to convert endpoint absorbance to concentrations. […]

[2] = system: TABX2S cells (over-expressing Bcl-xL); assay: in vitro
Text: Briefly, a DNA fragment encoding the full-length mouse Bcl-xL cDNA was isolated from the plasmid pBS-BCL-xL (Tzung et al., Am. J. Path. 150:1985-1995 (1997), incorporated herein by reference in its entirety) by digestion with the restriction endonuclease EcoRI. This EcoRI fragment was cloned into the EcoRI site of the mammalian expression vector pSFFV (Fuhlbrigge et al., Proc. Nat. Acad. Sci. USA 85:5649-5653 (1988)) in both sense and antisense orientations, to form expression plasmids pSFFV-Bc/-xL-WT(sense) or pSFFV-Bc/-xL(antisense), respectively. The tumorigenic murine hepatocyte cell line TAMH was transfected by lipofection (Lipofectamine, Life Technologies, Rockville, Md., according to the manufacturer's recommendations) with the plasmids pSFFV-neo (the control), pSFFV-Bc/-xL-WT(sense) or pSFFV-Bc/-xL(antisense). Characterization of and culture conditions for the cell lines have been previously published (Wu et al., Proc. Nat. Acad. Sci. USA 91:674-78 (1994); Wu et al., Cancer Res. 54:5964-5973 (1994)). Transfectants were selected for the acquisition of neomycin resistance by growing cells in the presence of 750 μg/ml of G418. Bulk transfectants were cloned by limiting dilution and individual clones were screened by immunoblot analysis to determine the level of Bcl-xL, protein expression as described below.
Selected transfectants were then tested for whole cell sensitivity to several apoptotic agents. Transfected cells were cultured to reach approximately 80% confluency prior to plating an equal number of cells from selected clones on 12-well tissue culture plates. The transplanted cells were treated with the following apoptotic agents: 5 μM doxorubicin for 48 hours; 5 μM cisplatin for 48 hours; or with 200 U/ml tumor necrosis factor (TNF) plus 1 μg/ml actinomycin D for 18 hours. Cell viability was determined by trypan blue dye exclusion. The percentage of viable cells was calculated by the number of viable cells (treated with a particular apoptogenic agent) divided by the number in the control group (untreated).
TABX2S cells and TABX1A cells were also examined for the effects of various mitochondrial inhibitors. […] Azide was diluted from an aqueous stock solution.

T1 sequence (Q07817 1-213 limits assumed, stated change not applied): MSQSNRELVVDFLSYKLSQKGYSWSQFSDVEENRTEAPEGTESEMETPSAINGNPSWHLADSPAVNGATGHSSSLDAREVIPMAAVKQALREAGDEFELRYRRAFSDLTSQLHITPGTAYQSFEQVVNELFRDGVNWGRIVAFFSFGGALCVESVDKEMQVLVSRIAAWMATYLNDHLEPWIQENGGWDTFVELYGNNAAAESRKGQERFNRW

antimycin A
Bcl-xL pore-forming activity (Bcl-xLΔC20): completely blocked | Rh-123 retained (control mitochondria): greater than 80% | Rh-123 retained [1]: Less than 40% | glucose uptake and lactate production (TAMH cells): increased glucose uptake and lactate production | time until cell death readily apparent [2]: ≤ 2 h
